Measured values reported in patent US20250027130A1, “Nucleic Acid Synthesis and Sequencing Using Tethered Nucleoside Triphosphates” (The Regents of the University of California, priority 2022, published 2025).

System: MaPylRS
Experiment: Intact tRNA mass spectrometry: acylation of Ma-tRNA^Pyl by MaPylRS
Type: biochemical, Methanomethylophilus alvus
Conditions: MaPylRS 2.5 μM, Ma-tRNA^Pyl 25 μM, 37° C., 2 h; average of 3 technical replicates

CC(C)(C)OC(=O)NCCCCC(C(=O)O)C(=O)O [Substrate 16]
Yield of diacylated Ma-tRNA^Pyl: 0.0%
Yield of monoacylated Ma-tRNA^Pyl: 0.25%
